Measurements reported in patent US20110009345A1 (priority 2009, published 2011).
No end group written: not given here.

System: adjuvant-induced arthritis
Details: male Sprague-Dawley rats, by gavage during 10 days

Substance: YGSRS [peptide, tyrosine-glycine-serine-arginine-serine]
- effect on body weight: without inducing weight loss
